Assay results from ChEMBL document CHEMBL5678816, “A Next-Generation TRK Kinase Inhibitor Overcomes Acquired Resistance to Prior TRK Kinase Inhibition in Patients with TRK Fusion-Positive Solid Tumors” (Cancer Discov, 2017).
Active and inactive are the calls of the source. No cut-off for these calls is given here.

Tests used:
[1] = Clearance in monkey at 1 mg/kg, iv administered as 20% hydroxypropyl-beta-cyclodextrin formulation by LC-MS analysis; type: ADME, organism-based, Macaca mulatta; details: rhesus monkey, in vivo
NIH3T3 = assay: Antitumor activity against mouse NIH3T3 cells harboring extracellular domain deleted TRKA G595R mutant implanted in nu/nu NCr mouse assessed as inhibition of tumor growth at 30 to 300 mg/kg, po administered twice daily for 12 days; type: functional, organism-based; details: dose 30-300 mg/kg, time 12.0 day
SJRH30 = assay: Inhibition of cell proliferation in human SJRH30 cells upto 10 umol/L incubated for 72 hrs by DAPI staining based analysis; type: functional; details: dose <= 10.0 µmol/L
647-V = assay: Inhibition of cell proliferation in human 647-V cells upto 10 umol/L incubated for 72 hrs by DAPI staining based analysis; type: functional; details: dose <= 10.0 µmol/L
SK-MEL-28 = assay: Inhibition of cell proliferation in human SK-MEL-28 cells upto 10 umol/L incubated for 72 hrs by DAPI staining based analysis; type: functional; details: dose <= 10.0 µmol/L
A 172 = assay: Inhibition of cell proliferation in human A-172 cells upto 10 umol/L incubated for 72 hrs by DAPI staining based analysis; type: functional; details: dose <= 10.0 µmol/L
MZ-CRC-1 = assay: Inhibition of cell proliferation in human MZ-CRC-1 cells upto 10 umol/L incubated for 72 hrs by DAPI staining based analysis; type: functional; details: dose <= 10.0 µmol/L
J82 = assay: Inhibition of cell proliferation in human J82 cells upto 10 umol/L incubated for 72 hrs by DAPI staining based analysis; type: functional; details: dose <= 10.0 µmol/L
K562 = assay: Inhibition of cell proliferation in human K562 cells upto 10 umol/L incubated for 72 hrs by DAPI staining based analysis; type: functional; details: dose <= 10.0 µmol/L
U138-MG = assay: Inhibition of cell proliferation in human U138-MG cells upto 10 umol/L incubated for 72 hrs by DAPI staining based analysis; type: functional; details: dose <= 10.0 µmol/L
CGTH-W-1 = assay: Inhibition of cell proliferation in human CGTH-W-1 cells upto 10 umol/L incubated for 72 hrs by DAPI staining based analysis; type: functional; details: dose <= 10.0 µmol/L
SCC-9 = assay: Inhibition of cell proliferation in human SCC-9 cells upto 10 umol/L incubated for 72 hrs by DAPI staining based analysis; type: functional; details: dose <= 10.0 µmol/L
[2] = Cmax in pediatric patient with recurrent ETV6-NTRK3-rearranged infantile fibrosarcoma at 20 mg administered twice a day as liquid formulation for 1 day by LC-MS/MS analysis; type: ADME; details: human, in vivo
[3] = Cmin in adult patient with recurrent LMNA-NTRK1 rearranged colorectal cancer at 100 mg administered twice a day as powder-in-capsule or liquid formulation for 15 day and measured 10 hrs post dose by LC-MS/MS analysis; type: ADME; details: human, in vivo, po, read-out: Cmin
[4] = target: Rhodopsin kinase GRK7 (Homo sapiens) (UniProt Q8WTQ7); assay: Inhibition of GRK7 (unknown origin) at 1 uM in presence of ATP relative to control; values are per cent of control
[5] = target: Ribosomal protein S6 kinase alpha-1 (Homo sapiens) (UniProt Q15418); assay: Inhibition of Rsk1 (unknown origin) at 1 uM in presence of ATP relative to control; values are per cent of control
[6] = target: Ribosomal protein S6 kinase alpha-3 (Homo sapiens) (UniProt P51812); assay: Inhibition of Rsk2 (unknown origin) at 1 uM in presence of ATP relative to control; values are per cent of control
[7] = target: Maternal embryonic leucine zipper kinase (Homo sapiens) (UniProt Q14680); assay: Inhibition of MELK (unknown origin) at 1 uM in presence of ATP relative to control; values are per cent of control
[8] = target: Serine/threonine-protein kinase D1 (Homo sapiens) (UniProt Q15139); assay: Inhibition of PKD1 (unknown origin) at 1 uM in presence of ATP relative to control; values are per cent of control
[9] = target: Dual specificity mitogen-activated protein kinase kinase 1 (Homo sapiens) (UniProt Q02750); assay: Inhibition of MEK1 (unknown origin) at 1 uM in presence of ATP relative to control; values are per cent of control
[10] = target: Serine/threonine-protein kinase 4 (Homo sapiens) (UniProt Q13043); assay: Inhibition of MST1 (unknown origin) at 1 uM in presence of ATP relative to control; values are per cent of control
[11] = target: Serine/threonine-protein kinase PAK 4 (Homo sapiens) (UniProt O96013); assay: Inhibition of PAK4 (unknown origin) at 1 uM in presence of ATP relative to control; values are per cent of control
[12] = target: Death-associated protein kinase 1 (Homo sapiens) (UniProt P53355); assay: Inhibition of DAPK1 (unknown origin) at 1 uM in presence of ATP relative to control; values are per cent of control
[13] = target: Serine/threonine-protein kinase haspin (Homo sapiens) (UniProt Q8TF76); assay: Inhibition of Haspin (unknown origin) at 1 uM in presence of ATP relative to control; values are per cent of control
[14] = target: Mitogen-activated protein kinase kinase kinase 5 (Homo sapiens) (UniProt Q99683); assay: Inhibition of MAP3K5 (unknown origin) at 1 uM in presence of ATP relative to control; values are per cent of control
[15] = target: Serine/threonine-protein kinase DCLK2 (Homo sapiens) (UniProt Q8N568); assay: Inhibition of DCAMKL2 (unknown origin) at 1 uM in presence of ATP relative to control; values are per cent of control
[16] = target: MAP kinase-activated protein kinase 2 (Homo sapiens) (UniProt P49137); assay: Inhibition of MAPKAP-K2 (unknown origin) at 1 uM in presence of ATP relative to control; values are per cent of control
[17] = target: Phosphorylase b kinase gamma catalytic chain, liver/testis isoform (Homo sapiens) (UniProt P15735); assay: Inhibition of PhKgamma2 (unknown origin) at 1 uM in presence of ATP relative to control; values are per cent of control
[18] = target: cAMP-dependent protein kinase catalytic subunit alpha (Homo sapiens) (UniProt P17612); assay: Inhibition of PKAC-alpha (unknown origin) at 1 uM in presence of ATP relative to control; values are per cent of control
[19] = target: Insulin-like growth factor 1 receptor (Homo sapiens) (UniProt P08069); assay: Inhibition of Activated IGF-1R (unknown origin) at 1 uM in presence of ATP relative to control; values are per cent of control
Chain of Insulin-like growth factor 1 receptor (Homo sapiens) (P08069 31-736 limits assumed): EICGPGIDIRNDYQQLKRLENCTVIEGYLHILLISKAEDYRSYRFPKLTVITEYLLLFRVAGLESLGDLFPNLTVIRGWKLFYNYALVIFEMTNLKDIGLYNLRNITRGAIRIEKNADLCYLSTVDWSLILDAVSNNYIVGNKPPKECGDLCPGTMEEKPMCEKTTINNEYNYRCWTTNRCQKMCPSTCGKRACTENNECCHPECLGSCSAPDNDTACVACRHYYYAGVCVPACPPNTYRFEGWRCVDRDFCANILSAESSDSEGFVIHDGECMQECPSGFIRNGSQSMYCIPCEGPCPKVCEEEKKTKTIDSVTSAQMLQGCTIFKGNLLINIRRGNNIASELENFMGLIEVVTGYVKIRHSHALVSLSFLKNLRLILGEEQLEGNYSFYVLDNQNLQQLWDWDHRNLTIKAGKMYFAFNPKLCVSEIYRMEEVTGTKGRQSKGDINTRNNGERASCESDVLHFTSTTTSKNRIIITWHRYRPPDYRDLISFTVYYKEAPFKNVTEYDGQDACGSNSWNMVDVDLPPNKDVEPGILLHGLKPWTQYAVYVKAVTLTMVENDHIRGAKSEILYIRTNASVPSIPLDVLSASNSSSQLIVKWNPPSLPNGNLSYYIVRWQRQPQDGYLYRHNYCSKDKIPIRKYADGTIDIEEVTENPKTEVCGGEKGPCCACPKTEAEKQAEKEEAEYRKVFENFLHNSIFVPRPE
Chain of Insulin-like growth factor 1 receptor (Homo sapiens) (P08069 741-1367 limits assumed): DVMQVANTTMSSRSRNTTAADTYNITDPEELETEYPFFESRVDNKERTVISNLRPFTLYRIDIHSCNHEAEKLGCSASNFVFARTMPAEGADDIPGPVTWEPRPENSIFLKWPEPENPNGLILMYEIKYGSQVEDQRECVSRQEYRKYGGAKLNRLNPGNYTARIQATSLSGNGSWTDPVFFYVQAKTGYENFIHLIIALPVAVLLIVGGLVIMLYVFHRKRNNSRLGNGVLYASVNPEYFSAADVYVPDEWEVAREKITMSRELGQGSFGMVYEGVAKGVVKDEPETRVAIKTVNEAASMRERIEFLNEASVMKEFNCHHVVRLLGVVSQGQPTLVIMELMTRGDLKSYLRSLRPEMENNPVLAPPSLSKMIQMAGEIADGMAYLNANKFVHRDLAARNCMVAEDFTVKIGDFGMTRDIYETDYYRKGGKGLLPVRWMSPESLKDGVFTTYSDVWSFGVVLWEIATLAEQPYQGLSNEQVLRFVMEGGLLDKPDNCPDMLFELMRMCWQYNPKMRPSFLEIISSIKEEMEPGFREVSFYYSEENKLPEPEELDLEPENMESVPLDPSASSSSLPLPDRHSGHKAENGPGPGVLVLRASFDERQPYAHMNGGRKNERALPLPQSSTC

Chain of Mitogen-activated protein kinase kinase kinase 5 (Homo sapiens) (Q99683 whole entry): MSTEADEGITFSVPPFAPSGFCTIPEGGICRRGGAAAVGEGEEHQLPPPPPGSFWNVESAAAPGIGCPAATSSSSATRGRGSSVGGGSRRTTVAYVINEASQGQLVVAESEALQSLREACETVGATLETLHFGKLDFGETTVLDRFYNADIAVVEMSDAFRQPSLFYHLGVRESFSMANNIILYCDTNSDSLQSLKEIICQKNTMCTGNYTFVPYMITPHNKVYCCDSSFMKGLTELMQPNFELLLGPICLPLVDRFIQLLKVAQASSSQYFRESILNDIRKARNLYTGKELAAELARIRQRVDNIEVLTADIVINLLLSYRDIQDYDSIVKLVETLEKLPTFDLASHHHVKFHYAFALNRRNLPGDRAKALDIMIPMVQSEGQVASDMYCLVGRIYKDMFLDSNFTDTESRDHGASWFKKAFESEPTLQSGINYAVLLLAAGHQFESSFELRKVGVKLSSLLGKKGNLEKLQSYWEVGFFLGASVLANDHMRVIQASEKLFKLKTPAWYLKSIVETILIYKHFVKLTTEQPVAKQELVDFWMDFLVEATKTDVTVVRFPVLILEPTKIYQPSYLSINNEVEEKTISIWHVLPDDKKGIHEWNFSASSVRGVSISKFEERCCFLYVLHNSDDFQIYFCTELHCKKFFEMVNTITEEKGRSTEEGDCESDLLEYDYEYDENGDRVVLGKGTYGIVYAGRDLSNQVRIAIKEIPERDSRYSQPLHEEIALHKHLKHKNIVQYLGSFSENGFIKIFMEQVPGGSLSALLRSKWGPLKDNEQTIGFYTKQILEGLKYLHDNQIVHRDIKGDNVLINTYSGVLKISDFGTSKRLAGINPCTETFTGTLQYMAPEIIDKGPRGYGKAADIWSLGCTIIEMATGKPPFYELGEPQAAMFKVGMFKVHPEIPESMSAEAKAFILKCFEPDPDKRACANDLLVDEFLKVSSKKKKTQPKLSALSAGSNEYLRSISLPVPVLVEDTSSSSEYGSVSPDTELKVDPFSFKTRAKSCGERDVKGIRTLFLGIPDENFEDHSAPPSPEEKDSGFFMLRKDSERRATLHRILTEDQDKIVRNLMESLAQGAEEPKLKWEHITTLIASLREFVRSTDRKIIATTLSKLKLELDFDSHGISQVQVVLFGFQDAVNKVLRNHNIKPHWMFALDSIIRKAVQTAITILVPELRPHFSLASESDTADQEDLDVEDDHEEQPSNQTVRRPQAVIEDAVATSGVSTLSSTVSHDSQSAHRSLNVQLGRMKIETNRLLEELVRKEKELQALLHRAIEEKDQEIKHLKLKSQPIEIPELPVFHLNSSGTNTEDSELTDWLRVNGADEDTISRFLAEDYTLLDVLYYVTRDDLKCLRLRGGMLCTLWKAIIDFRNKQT
Chain of Rhodopsin kinase GRK7 (Homo sapiens) (Q8WTQ7 whole entry): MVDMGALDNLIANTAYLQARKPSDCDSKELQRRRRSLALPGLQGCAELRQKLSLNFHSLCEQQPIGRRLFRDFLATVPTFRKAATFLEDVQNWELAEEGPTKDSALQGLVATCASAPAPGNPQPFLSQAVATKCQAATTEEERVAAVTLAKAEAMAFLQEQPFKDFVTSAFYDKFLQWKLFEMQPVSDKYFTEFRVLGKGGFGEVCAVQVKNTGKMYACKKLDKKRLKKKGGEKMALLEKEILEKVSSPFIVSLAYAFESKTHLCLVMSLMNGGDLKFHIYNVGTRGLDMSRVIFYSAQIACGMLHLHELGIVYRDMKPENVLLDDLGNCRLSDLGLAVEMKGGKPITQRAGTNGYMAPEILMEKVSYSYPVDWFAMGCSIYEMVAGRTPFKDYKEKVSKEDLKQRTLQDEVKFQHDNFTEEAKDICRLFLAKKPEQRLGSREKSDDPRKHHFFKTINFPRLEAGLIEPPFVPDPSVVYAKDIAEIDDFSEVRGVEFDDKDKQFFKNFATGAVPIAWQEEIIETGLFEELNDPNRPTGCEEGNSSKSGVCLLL
Chain of Ribosomal protein S6 kinase alpha-3 (Homo sapiens) (P51812 whole entry): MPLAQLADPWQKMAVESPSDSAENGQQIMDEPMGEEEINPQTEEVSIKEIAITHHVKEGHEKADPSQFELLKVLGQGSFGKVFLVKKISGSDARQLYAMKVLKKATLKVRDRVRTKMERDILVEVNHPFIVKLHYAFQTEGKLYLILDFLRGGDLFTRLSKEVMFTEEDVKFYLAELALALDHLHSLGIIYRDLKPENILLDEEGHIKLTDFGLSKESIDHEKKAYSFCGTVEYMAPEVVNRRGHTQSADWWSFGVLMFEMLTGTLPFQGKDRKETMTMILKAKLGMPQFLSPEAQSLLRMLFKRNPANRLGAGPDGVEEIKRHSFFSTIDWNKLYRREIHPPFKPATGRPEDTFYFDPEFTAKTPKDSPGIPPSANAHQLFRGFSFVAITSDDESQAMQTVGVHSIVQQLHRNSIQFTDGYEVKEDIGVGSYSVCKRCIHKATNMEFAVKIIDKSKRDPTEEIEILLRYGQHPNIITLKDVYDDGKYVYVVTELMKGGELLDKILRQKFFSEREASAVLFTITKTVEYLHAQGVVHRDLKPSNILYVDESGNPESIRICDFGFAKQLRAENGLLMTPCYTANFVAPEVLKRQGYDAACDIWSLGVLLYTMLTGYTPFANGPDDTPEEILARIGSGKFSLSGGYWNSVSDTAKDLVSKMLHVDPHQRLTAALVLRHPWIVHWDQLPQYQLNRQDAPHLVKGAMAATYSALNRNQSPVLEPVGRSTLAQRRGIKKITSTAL
Chain of Phosphorylase b kinase gamma catalytic chain, liver/testis isoform (Homo sapiens) (P15735 whole entry, canonical isoform): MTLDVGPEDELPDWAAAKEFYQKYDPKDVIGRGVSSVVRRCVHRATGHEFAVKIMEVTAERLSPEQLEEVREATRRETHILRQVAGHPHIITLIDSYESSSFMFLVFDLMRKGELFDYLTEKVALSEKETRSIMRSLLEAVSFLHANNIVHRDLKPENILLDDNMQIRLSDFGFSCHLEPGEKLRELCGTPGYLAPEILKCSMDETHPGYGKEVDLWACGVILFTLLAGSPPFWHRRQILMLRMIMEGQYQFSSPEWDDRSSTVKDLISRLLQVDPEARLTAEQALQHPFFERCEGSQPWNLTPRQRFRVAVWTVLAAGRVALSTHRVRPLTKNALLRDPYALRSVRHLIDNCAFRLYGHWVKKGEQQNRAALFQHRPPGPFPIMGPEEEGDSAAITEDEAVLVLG
Chain of Serine/threonine-protein kinase 4 (Homo sapiens) (Q13043 whole entry, looked up): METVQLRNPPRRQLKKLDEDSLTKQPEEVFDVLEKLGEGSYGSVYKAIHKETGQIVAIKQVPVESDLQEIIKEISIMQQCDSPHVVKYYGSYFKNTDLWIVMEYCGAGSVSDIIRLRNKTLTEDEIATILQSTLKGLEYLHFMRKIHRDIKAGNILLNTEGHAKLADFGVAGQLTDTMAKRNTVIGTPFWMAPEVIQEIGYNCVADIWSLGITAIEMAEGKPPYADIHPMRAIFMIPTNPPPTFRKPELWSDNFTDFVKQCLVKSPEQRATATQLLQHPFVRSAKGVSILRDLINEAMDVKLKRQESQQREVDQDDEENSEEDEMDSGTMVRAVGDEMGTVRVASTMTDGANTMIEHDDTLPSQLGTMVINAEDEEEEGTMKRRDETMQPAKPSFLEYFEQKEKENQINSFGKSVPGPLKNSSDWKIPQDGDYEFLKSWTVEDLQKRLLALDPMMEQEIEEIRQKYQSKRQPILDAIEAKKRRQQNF

For C[C@@H]1CCc2ncc(F)cc2[C@H]2CCCN2c2ccn3ncc(c3n2)C(=O)N1 [SELITRECTINIB], the clearance [1] was 23.3 mL/min/kg, the Activity (NIH3T3) was “Active” and the inhibition (SJRH30) was “inactive”. For the same compound, the inhibition (647-V) was “inactive”, the inhibition (SK-MEL-28) was “inactive” and the inhibition (A 172) was “inactive”. For the same compound, the inhibition (MZ-CRC-1) was “inactive”, the inhibition (J82) was “inactive” and the inhibition (K562) was “inactive”. The inhibition (U138-MG) was “inactive”, the inhibition (CGTH-W-1) was “inactive” and the inhibition (SCC-9) was “inactive”. It also gave a Cmax [2] of 143 ng/mL, a concentration at 370 h [3] of 7.78 ng/mL and a residual activity [4] of 70.5%. The residual activity [5] was 109%, the residual activity [6] was 134% and the residual activity [7] was 104%. The residual activity [8] was 106%, the residual activity [9] was 122% and the residual activity [10] was 95.5%. The residual activity [11] was 101%, the residual activity [12] was 120% and the residual activity [13] was 110%. It also gave a residual activity [14] of 106%, a residual activity [15] of 140% and a residual activity [16] of 102%. The residual activity [17] was 104%, the residual activity [18] was 109% and the residual activity [19] was 84.5%.
